# Entries after “also recorded” stand apart in the source; their conditions may differ.
# Legend:
# [1] = test system: Microcystis aeruginosa (FACHB-905); assay: Algicidal effect on toxin-producing Microcystis aeruginosa, OD680 over 5 d in light incubator; type: cell-based
# Description: (§1) Microcystis aeruginosa is cultured in a light incubator (GZX-250BS-III), provided by Shanghai CIMO Medical Instrument Co., Ltd., with a light intensity of 3000 LX, a light-dark time ratio of 12:12, and a temperature setting of 25° C. The four kinds of bacteria are all cultured in a biochemical incubator (SPX-150), provided by Shanghai Yuejin Medical Instruments Co., Ltd., with a temperature setting of 37° C.
# (§2) The concentration of Microcystis aeruginosa and other bacteria is measured with an ultraviolet spectrophotometer (Shimadzu, UV-2700), and the concentration is characterized by the optical density of liquid at 680 nm and 600 nm, and recorded as OD680 and OD600, respectively.
# (§3) 100 mL of BG-11 medium was added to a 150 mL Erlenmeyer flasks, and was inoculated with cyanobacteria of 0.2 calculated as OD680 under aseptic conditions. Different volumes of the AA stock solution were added to the Erlenmeyer flasks to make sure that the dosage of AA was 5 mg/L, 7 mg/L, 10 mg/L, 15 mg/L and 20 mg/L in different Erlenmeyer flasks. At the same time, a control experiment (Control) without AA was established. The cyanobacteria were put in a light incubator for culture. Considering the existing reports that the most suitable growth light for cyanobacteria was 2,000-4,000 LX (see “Freshwater Algae Culture Collection at the Institute of Hydrobiology”, website “http://algae.ihb.ac.cn/Products/ProductDetail.aspx?product=523”, and the literature “The effect of light on the growth and chlorophyll fluorescence of Chlorella and Microcystis aeruginosa”, Journal of Xi'an University of Arts and Science, 2019, 22, 73-77”), 3,000 LX was selected as the light intensity in the present example. At the beginning of the incubation and after 0.5 d, 1 d, 1.5 d, 2 d, 3 d, 4 d and 5 d of the incubation, samples were taken to detect the OD680 under aseptic conditions.
# [2] = test system: Microcystis aeruginosa (FACHB-469); assay: Algicidal effect on non-toxic Microcystis aeruginosa, OD680 over 5 d in light incubator; type: cell-based
# Description: as §1, §2, §3
# Except for the different cyanobacteria strain, other operations are the same as those in step (1).
# Microcystis aeruginosa [3] = assay: Algicidal effect at different initial densities of Microcystis aeruginosa, OD680; type: cell-based; settings: 15 mg/L; initial OD680 0.11 to 1.0 (up to 2.59×10^7 cells/mL); 5 d
# Description: (§4) Unless otherwise specified, the Microcystis aeruginosa species used in the following examples is the high-toxin-producing strain FACHB-905.
# as §2
# 100 mL of BG-11 medium was added to 150 mL Erlenmeyer flasks, and was inoculated with cyanobacteria to finally obtain solutions with the OD680 of 0.11, 0.27, 0.62 and 1.0, respectively, under aseptic conditions. A certain volume of the AA stock solution was added to the Erlenmeyer flasks, so that the dosage of AA is 15 mg/L. At the same time, the control experiments (Control) without AA were established for different cyanobacteria densities. The cyanobacteria were put in a light incubator for culture. At the beginning of the incubation and after 1 d, 2 d, 3 d, 4 d, and 5 d of the incubation, samples were taken to detect the OD680 under aseptic conditions.
# Microcystis aeruginosa [4] = assay: Comparison of algaecides, inhibition rate from chlorophyll a content; type: cell-based; settings: incubated 3 days; 15 mg/L
# Source text: as §4
# The measurement of chlorophyll a refers to the method in the literature (“Potent removal of cyanobacteria with controlled release of toxic secondary metabolites by a titanium xerogel coagulant”, Water Res. 2018, 128, 341-349). Specifically, collected algae culture is filtered with a 0.7 μm GF/F glass filter membrane (Whatman). The collected cells are frozen overnight in a refrigerator at −4° C. Then 90% acetone is added for overnight extraction. The extract is centrifuged in a high-speed refrigerated centrifuge (Tianuoda, CT14RD) at 10,000 rpm and 4° C. for 10 min to collect the supernatant, and the absorbance is detected at 630 nm, 663 nm, 645 nm and 750 nm. The formula for calculating the content of chlorophyll a is as follows:
# [formula] wherein A663, A750, A645 and A750 are the absorbance of the supernatant at 663 nm, 750 nm, 645 nm and 750 nm, respectively. Ve is the volume of an extracted solution, Vs is the volume of a filtered solution, and δ is the optical path of a cuvette. The calculation formula for the inhibition rate of an algaecide on Microcystis aeruginosa is as follows: […]
# 300 mL of BG-11 medium was added to 500 mL Erlenmeyer flasks, and was inoculated with cyanobacteria of 0.2 calculated as OD680 under aseptic conditions. […]
# Bacillus subtilis = assay: Bacterial growth with AA, OD600 after 24 h; type: cell-based; settings: for effect on growth (OD600): 6-768 mg/L, 24 h, vs control
# Description: (§5) The bacteria used in the following examples are Escherichia coli, Salmonella, Bacillus subtilis and Staphylococcus aureus, all of which are provided by the School of Life Sciences, Nanjing University. The bacteria are cultured with an LB nutrient broth. The main components of the LB nutrient broth include: tryptone 10.0 g/L, yeast extract 5.0 g/L, and sodium chloride 10.0 g/L.
# as §1, §2
# (§6) 4 mL of nutrient broth was added to 9 test tubes under aseptic conditions, and the test tubes were numbered 1 to 9. A broth stock solution containing 1,536 mg/L AA was prepared, and 4 mL of which was taken and added to the No. 9 test tube. After the solution in the No. 9 test tube was uniformly mixed, 4 mL of the mixed solution in the No. 9 test tube was taken and added to the No. 8 test tube. By analogy, dilution was performed by the stepwise dilution method to the No. 2 test tube, and after uniform mixing, 4 mL of the solution in the No. 2 test tube was taken and discarded. The No. 1 test tube without AA was taken as the blank group (Control). The final concentrations of AA in each test tube from No. 1 to No. 9 were 0 mg/L, 6 mg/L, 12 mg/L, 24 mg/L, 48 mg/L, 96 mg/L, 192 mg/L, 384 mg/L, and 768 mg/L, respectively. A suspension of the bacteria was diluted with nutrient broth to an OD600 of 0.05. 100 μL of the diluted suspension was added to each of the 9 test tubes, and the test tubes were sealed with sterilized sealing films. After completing the above operations, the bacterial solutions were put into a biochemical incubator, and the OD600 in each test tube was measured after incubation for 24 h.
# Escherichia coli = assay: Bacterial growth with AA, OD600 after 24 h; type: cell-based; settings: for growth rate (OD600) / effect on growth (OD600): 24 h; for effect on growth (OD600): 6-768 mg/L, vs control
# Description: as §5, §1, §2, §6
# Salmonella = assay: Bacterial growth with AA, OD600 after 24 h; type: cell-based
# Description: as §5, §1, §2, §6
# Staphylococcus aureus = assay: Bacterial growth with AA, OD600 after 24 h; type: cell-based
# Description: as §5, §1, §2, §6
# Microcystis aeruginosa [5] = assay: Actual photochemical quantum yield of the photosystem (Water-PAM); type: cell-based
# Description: as §4
# The actual photochemical quantum yield is measured using a Water-PAM phytoplankton analyzer (Walz), and 2.5 mL of algae culture is taken to measure Fm′ and Fs after light adaptation. The calculation formula for the actual photochemical quantum yield is as follows: ϕe=ΔF/Fm′=(Fm′−Fs)/Fm′ wherein ϕe is the actual photochemical quantum yield, and Fm′ and Fs are the maximum chlorophyll fluorescence and the stable chlorophyll fluorescence of the algae culture after light adaptation, respectively (“Effects of different algaecides on the photosynthetic capacity, cell integrity and microcystin-LR release of Microcystis aeruginosa”, Sci. Total Environ. 2013, 463, 111-119).
# 100 mL of BG-11 medium was added to 150 mL Erlenmeyer flasks, and was inoculated with cyanobacteria to an initial OD680 of 0.2 under aseptic conditions. Different volumes of the AA stock solution were added to the Erlenmeyer flasks, so that the dosage of AA was 7 mg/L, 10 mg/L and 15 mg/L, respectively. At the same time, a control experiment (Control) without AA was established. […] At the beginning of the incubation and after 0.5 d, 1 d, 1.5 d, 2 d, 3 d, 4 d, and 5 d of the incubation, samples were taken to detect the chlorophyll fluorescence parameters under aseptic conditions.
# Microcystis aeruginosa [6] = assay: Growth inhibition under natural light (sunlit window sill), OD680; type: cell-based; settings: under sunlight, within 5 days
# Description: as §4, §2
# 100 mL of BG-11 medium was added to 150 mL Erlenmeyer flasks, and was inoculated with cyanobacteria to an initial OD680 of 0.2 under aseptic conditions. A certain volume of the AA stock solution was added to the Erlenmeyer flasks, so that the dosage of AA was 10 mg/L or 20 mg/L. At the same time, a control experiment (Control) without AA was established. The cyanobacteria were placed at a sunlit window sill for incubation. At the beginning of the incubation and after 0.5 d, 1 d, 1.5 d, 2 d, 3 d, 4 d, and 5 d of the incubation, samples were taken to detect the OD680 under aseptic conditions.
# [7] = 25° C.; cited from earlier work
# [8] = pH 6.4; cited from earlier work
# Daphnia magna = settings: cited from earlier work
# [9] = concentration less than 738 mg/L
smiles,measurement,setting,value
"CC(=O)CC(C)=O [AA, acetylacetone]",effect on growth (OD680),"[1]; 5 mg/L, compared to the control group",no significant effect
same,effect on growth (OD680),[1]; 7 mg/L,"inhibited, but the growth curve of which is still increase"
same,algicidal effect on growth (OD680),"[1]; 10 mg/L, within 5 d, weaker than 15 mg/L",continued to show algicidal effect
same,growth curve (OD680),"[1]; 20 mg/L, compared with 15 mg/L AA",no significant change in the growth curve
same,optical density (OD680),"[1]; AA concentration greater than 15 mg/L, starting from day 1.5",began to decrease
same,effect on growth (OD680),"[1]; first day of addition, 5-20 mg/L",no significant effect
same,algicidal effect on growth (OD680),[2]; 5 mg/L,still showed algicidal effect
same,algicidal effect on growth (OD680),[2]; 7 mg/L,a certain algicidal effect
same,growth curve (OD680),"[2]; 20 mg/L, compared with 10 mg/L and 15 mg/L AA",did not change significantly
same,effect on growth (OD680),[2]; dosage greater than 10 mg/L,significantly inhibited
same,effect on growth (OD680),[2]; on day 1.5,inhibited
same,algicidal performance (OD680),Microcystis aeruginosa [3],excellent algicidal performance
same,inhibition rate on Microcystis aeruginosa (chlorophyll a),Microcystis aeruginosa [4],higher than all other algaecides
same,effect on growth (OD600),Bacillus subtilis,basically had no influence on the growth
same,effect on growth (OD600),Bacillus subtilis; listed as acetylacetone,no inhibitory effect
same,killing of bacteria,Bacillus subtilis; [9],will not kill
same,growth rate (OD600),Escherichia coli; 12 mg/L,slightly lower than that of the control group
same,effect on growth (OD600),Escherichia coli,basically had no influence on the growth
same,effect on growth (OD600),Escherichia coli; listed as acetylacetone,no inhibitory effect
same,growth rate (OD600),Escherichia coli; concentration increased to 24 mg/L,increased slightly
same,killing of bacteria,Escherichia coli; [9],will not kill
same,growth rate (OD600),"Salmonella; 768 mg/L, still a growth trend within 24 h",decreased
same,growth rate (OD600),"Salmonella; 6-384 mg/L, compared with the control group",increased
same,effect on growth (OD600),"Salmonella; 6-768 mg/L, 24 h, vs control",no inhibitory effect; also recorded: basically had no influence on the growth
same,killing of bacteria,Salmonella; [9],will not kill
same,effect on growth (OD600),"Staphylococcus aureus; 6-768 mg/L, 24 h, vs control",basically had no influence on the growth
same,effect on growth (OD600),"Staphylococcus aureus; 6-768 mg/L, 24 h, vs control, listed as acetylacetone",no inhibitory effect
same,killing of bacteria,Staphylococcus aureus; [9],will not kill
same,effect on growth (OD600),Staphylococcus aureus; concentration of up to 768 mg/L,can still promote the growth
same,actual photochemical quantum yield,"Microcystis aeruginosa [5]; after 1 day of incubation, 7, 10, 15 mg/L",significantly inhibited
same,actual photochemical quantum yield,"Microcystis aeruginosa [5]; second day of growth, AA of greater than 7 mg/L",0
same,effect on growth (OD680),Microcystis aeruginosa [6]; 10 mg/L,significantly inhibited
same,effect on growth (OD680),Microcystis aeruginosa [6]; 20 mg/L,significantly inhibited
same,Henry's law constant,[7],2.35×10^−6 atm m^3/mol
same,aquatic oxidation rate,[8],9.9e-09 M⁻¹ s⁻¹
same,median lethal dose,Daphnia magna,higher than 50 mg/L
"O=C(O)c1cc(O)c(O)c(O)c1 [gallic acid, reference compound]",inhibition rate on Microcystis aeruginosa (chlorophyll a),Microcystis aeruginosa [4],close to that of AA

# Reference: patent US11464228B2 (priority 2020, dated 2022)
